Here are results for 3 molecules from ChEMBL document CHEMBL1147160, “Bioactive constituents from the marine crinoid Himerometra magnipinna” (2007).

The subject of experiment [1] is Streptomyces. Description: Inhibition of hyphae formation in Streptomyces 85E at 80 ug/disk after 30 hrs by HF1 assay. The experiment is classed as functional. Conditions: for zone of inhibition at 80 µg/disc: read-out: IZ.
The subject of experiment [2] is Streptomyces. Description: Inhibition of hyphae formation in Streptomyces 85E at 40 ug/disk after 30 hrs by HF1 assay. It counts as functional, organism-based.

The source made the active and inactive calls. No cut-off for these calls is given here.

`COC1=C(Br)[C@H](O)[C@@]2(C=C1Br)CC(C(=O)NCCCCNC(=O)C1=NO[C@]3(C=C(Br)C(OC)=C(Br)[C@@H]3O)C1)=NO2`: the result with Streptomyces [1] was inactive.

For the molecule `CCCc1cc(O)c2c(c1)C(C1c3cc(O)cc(O)c3C(=O)c3c(O)cc(C(O)CC)cc31)c1cc(O)cc(O)c1C2=O` (stereo not given), in the experiment with Streptomyces [1], the zone of inhibition at 80 µg/disc is 11 mm. For the same molecule, the result in the experiment on Streptomyces [2] was inactive.

On to `COC1=C(Br)[C@H](O)[C@@]2(C=C1Br)CC(C(=O)NCCC(O)CCNC(=O)C1=NO[C@]3(C=C(Br)C(OC)=C(Br)[C@@H]3O)C1)=NO2`, for which, in the experiment with Streptomyces [1], the zone of inhibition at 80 µg/disc came out at 11 mm. For the same molecule, the outcome in the experiment with Streptomyces [2] was inactive.
